Experimental data taken from the supplement of paper PMC10627819.

How the values were obtained:
B. subtilis 168 [1] = test: fitness (endpoint OD595 vs no drug) (fraction); higher = more growth
In short: (§1)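 Background-subtracted growth curves were the basis for fitness, taken as the optical density at entry into stationary phase over the robust mean of no-drug control wells. A cap of 1 was applied. The curves came from OD595 readings every 30 min for 14 h at 37 °C, in 384-well plates seeded at OD595 0.01 with 30 µl, or 55 µl for S. pneumoniae.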

S. aureus DSM 20231 [2] = test: as above
In short: as §1

S. aureus Newman [3] = test: as above
In short: as §1

S. pneumoniae D39V [4] = test: as above
In short: as §1

B. subtilis 168 [5] = test: Bliss interaction score (quartile over a dose matrix) (fitness difference); higher = more antagonism (negative = synergy)
In short: (§2)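 Fitness was derived from optical density at entry into stationary phase, divided by the robust mean of the no-drug wells on the same plate. That reading was taken as OD595, and the ratio was capped at 1. Single-drug fitness was inferred from the combination data. The Bliss score, observed fitness minus the expected product of single-drug fitness, was summarised as quartiles over technical, biological and donor/recipient replicates.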

S. aureus DSM 20231 [6] = test: as above
In short: as §2

S. aureus Newman [7] = test: as above
In short: as §2

S. pneumoniae D39V [8] = test: as above
In short: as §2
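Wherever Bliss interaction score (quartile over a dose matrix) is given: first quartile when negative (synergy) and third quartile when positive (antagonism).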

COc1cccc2c1C(=O)c1c(O)c3c(c(O)c1C2=O)C[C@@](O)(C(=O)CO)C[C@@H]3O[C@H]1C[C@H](N)[C@H](O)[C@H](C)O1 [Doxorubicin] + Cc1onc(-c2ccccc2)c1C(=O)N[C@@H]1C(=O)N2[C@@H]1SC(C)(C)[C@@H]2C(=O)O [Oxacillin]
fitness
Details | first compound 0.25 µg/mL | first compound 0.5 µg/mL | first compound 0.625 µg/mL | first compound 1 µg/mL | first compound 1.25 µg/mL | first compound 2.5 µg/mL
B. subtilis 168 [1], partner 0.002 µg/mL | – | – | 0.995 | – | 0.895 | 0.749
B. subtilis 168 [1], partner 0.004 µg/mL | – | – | 0.932 | – | 0.89 | 0.675
B. subtilis 168 [1], partner 0.008 µg/mL | – | – | 0.881 | – | 0.871 | 0.512
S. aureus DSM 20231 [2], partner 0.0156 µg/mL | – | – | 0.738 | – | 0.756 | 0.599
S. aureus DSM 20231 [2], partner 0.0312 µg/mL | – | – | 0.604 | – | 0.585 | 0.532
S. aureus DSM 20231 [2], partner 0.0625 µg/mL | – | – | 0.479 | – | 0.481 | 0.466
S. aureus Newman [3], partner 0.0156 µg/mL | – | – | 0.705 | – | 0.671 | 0.671
S. aureus Newman [3], partner 0.0312 µg/mL | – | – | 0.637 | – | 0.633 | 0.645
S. aureus Newman [3], partner 0.0625 µg/mL | – | – | 0.582 | – | 0.583 | 0.569
S. pneumoniae D39V [4], partner 0.005 µg/mL | ≥ 1 | ≥ 1 | – | 0.997 | – | –
S. pneumoniae D39V [4], partner 0.01 µg/mL | 0.941 | 0.973 | – | 0.924 | – | –
S. pneumoniae D39V [4], partner 0.02 µg/mL | 0.889 | 0.897 | – | 0.891 | – | –
S. pneumoniae D39V [4], partner 0.04 µg/mL | 0.252 | 0.337 | – | 0.323 | – | –

fitness, B. subtilis 168 [1], one replicate
Details | partner 0.0078 µg/mL | partner 0.0155 µg/mL | partner 0.031 µg/mL | partner 0.075 µg/mL | partner 0.15 µg/mL | partner 0.3 µg/mL
first compound 0.625 µg/mL | ≥ 1 | ≥ 1 | 0.943 | 0.468 | 0.0267 | 0.0431
first compound 1.25 µg/mL | 0.965 | 0.934 | 0.857 | 0.496 | 0.0281 | 0.0304
first compound 2.5 µg/mL | 0.652 | 0.666 | 0.477 | 0.0449 | 0.0184 | 0.0211

Details | Bliss interaction score
B. subtilis 168 [5] | 0.0758
S. aureus DSM 20231 [6] | -0.0629
S. aureus Newman [7] | 0.0538
S. pneumoniae D39V [8] | 0.0665
